Results on 24 compounds are retold here after US12486251B2 (PHARMABLOCK SCIENCES (NANJING) , INC., priority 2020, dated 2025).

The assay deals with CBP recombinant proteins (Homo sapiens (Human), UniProt Q92793). Nature of the assay: Competitive HTRF assay for affinity to CBP recombinant protein. The class given is binding. Particulars: His-tagged CBP 5 nM, biotin-labeled ligand 50 nM, 1% DMSO. The method, then: The affinity of the compounds synthesized in the present patert to the CBP recombinant proteins was determined by competitive HTRF method. His-tagged cyclic adenosine monophosphate response element binding protein (CREB-binding protein, CBP) was expressed in Escherichia coli system and further purified. CBP biotinylated ligands were all self-made. The BL21 star (DE3) competert cells transfected with His-tagged CBP protein genes at N-terminal were cultured at 37° C. for 16 h until the OD value was between 0.6 and 0.8, induced by 0.5 mM of IPTG and cultured overnight. The supernatant of cell lysate was purified by a Ni-ion affinity column and a Superdex75 molecular sieve column sequentially. The purity of resulting CBP proteins was 95%. The fluorescent donor reagent MAb Anti 6HIS—Eu cryptate Gold (Cisbio #61HI2KLA), the receptor reagent Streptavidin-XL665 (#610SAXLA) and the detection buffer (#62SDBRDD) required for HTRF were obtained from CISBIO BIOASSAYS (Codolet, France). Tris(2-carboxyethyl)phosphine hydrochloride (TCEP), sodium chloride, adenosine triphosphate (ATP), Tween-20, dimethylsulfoxide (DMSO), bovine serum albumin (BSA) and HEPES buffer were obtained from SIGMA at the highest level commercially available.
CBP recombinant proteins, sequence (Q92793 whole entry): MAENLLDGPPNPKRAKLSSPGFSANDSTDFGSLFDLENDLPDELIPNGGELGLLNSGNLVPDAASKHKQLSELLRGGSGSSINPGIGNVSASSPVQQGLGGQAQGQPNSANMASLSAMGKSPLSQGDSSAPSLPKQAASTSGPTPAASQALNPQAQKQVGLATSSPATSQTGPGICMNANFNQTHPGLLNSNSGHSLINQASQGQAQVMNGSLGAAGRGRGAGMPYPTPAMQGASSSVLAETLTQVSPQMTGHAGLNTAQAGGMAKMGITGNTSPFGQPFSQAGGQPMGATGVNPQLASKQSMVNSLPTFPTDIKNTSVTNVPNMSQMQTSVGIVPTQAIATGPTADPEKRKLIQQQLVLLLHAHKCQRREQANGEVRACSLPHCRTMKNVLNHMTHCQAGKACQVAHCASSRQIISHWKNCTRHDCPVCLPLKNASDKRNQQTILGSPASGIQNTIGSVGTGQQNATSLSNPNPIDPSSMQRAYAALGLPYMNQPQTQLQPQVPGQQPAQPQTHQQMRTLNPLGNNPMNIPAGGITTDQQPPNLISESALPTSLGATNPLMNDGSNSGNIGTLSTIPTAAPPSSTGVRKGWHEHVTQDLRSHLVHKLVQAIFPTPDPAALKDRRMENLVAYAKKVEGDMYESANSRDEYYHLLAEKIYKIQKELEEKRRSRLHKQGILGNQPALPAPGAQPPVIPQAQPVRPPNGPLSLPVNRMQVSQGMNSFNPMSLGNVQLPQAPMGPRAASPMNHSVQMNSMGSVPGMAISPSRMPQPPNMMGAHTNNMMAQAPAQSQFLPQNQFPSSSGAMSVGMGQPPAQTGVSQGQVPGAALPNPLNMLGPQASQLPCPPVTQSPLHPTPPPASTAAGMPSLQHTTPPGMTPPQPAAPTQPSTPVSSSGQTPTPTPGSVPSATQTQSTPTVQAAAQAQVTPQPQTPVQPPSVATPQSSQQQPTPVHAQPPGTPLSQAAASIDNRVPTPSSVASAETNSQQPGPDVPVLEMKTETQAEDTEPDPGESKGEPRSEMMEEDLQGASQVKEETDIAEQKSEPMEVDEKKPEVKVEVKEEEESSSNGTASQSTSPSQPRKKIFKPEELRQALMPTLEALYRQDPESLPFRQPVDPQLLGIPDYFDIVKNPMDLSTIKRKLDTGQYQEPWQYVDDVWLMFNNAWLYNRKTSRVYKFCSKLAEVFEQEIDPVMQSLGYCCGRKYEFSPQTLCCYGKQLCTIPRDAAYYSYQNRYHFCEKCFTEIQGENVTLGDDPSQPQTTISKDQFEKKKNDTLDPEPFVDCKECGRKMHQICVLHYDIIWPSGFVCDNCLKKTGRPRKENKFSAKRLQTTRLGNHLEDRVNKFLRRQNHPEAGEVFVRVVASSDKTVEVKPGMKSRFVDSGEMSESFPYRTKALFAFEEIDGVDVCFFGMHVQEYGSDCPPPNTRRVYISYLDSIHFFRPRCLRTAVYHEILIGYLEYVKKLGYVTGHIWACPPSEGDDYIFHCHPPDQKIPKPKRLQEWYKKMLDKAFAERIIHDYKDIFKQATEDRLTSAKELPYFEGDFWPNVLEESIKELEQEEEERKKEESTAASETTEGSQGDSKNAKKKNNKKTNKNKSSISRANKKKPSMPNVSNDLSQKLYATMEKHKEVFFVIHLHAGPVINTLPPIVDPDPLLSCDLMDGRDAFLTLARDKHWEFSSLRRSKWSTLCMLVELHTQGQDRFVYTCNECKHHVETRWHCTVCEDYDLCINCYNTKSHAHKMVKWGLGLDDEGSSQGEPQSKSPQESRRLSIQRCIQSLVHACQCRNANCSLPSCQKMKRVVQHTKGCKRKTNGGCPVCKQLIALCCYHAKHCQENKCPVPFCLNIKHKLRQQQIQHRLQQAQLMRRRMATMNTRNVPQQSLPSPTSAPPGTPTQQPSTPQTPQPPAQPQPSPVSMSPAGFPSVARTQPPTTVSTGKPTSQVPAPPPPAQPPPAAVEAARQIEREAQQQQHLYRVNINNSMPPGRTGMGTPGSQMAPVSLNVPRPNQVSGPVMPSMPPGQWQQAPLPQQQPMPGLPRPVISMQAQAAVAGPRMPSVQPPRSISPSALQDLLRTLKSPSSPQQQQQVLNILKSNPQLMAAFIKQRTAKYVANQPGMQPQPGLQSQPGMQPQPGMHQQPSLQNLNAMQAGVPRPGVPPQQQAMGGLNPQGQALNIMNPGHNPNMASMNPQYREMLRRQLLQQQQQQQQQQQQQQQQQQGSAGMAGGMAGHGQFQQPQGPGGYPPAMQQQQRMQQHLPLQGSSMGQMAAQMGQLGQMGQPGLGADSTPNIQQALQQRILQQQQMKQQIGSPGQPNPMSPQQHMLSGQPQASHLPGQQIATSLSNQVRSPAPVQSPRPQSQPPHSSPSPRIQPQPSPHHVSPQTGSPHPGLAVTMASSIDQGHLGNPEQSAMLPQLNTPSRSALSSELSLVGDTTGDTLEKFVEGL
The general procedure of the competitive HTRF assay for the affinity to CBP recombinant proteins is as follows: 0.05% Tween-20 and 1 mM of TCEP were added immediately before the assay, and the assay was performed in a buffer consisting of 0.1 mg/ml BSA, 50 mM of HEPES and 5 mM of NaCl of pH 7.5. 2.5 μL of compound solution in a determination buffer with 4% DMSO and 5 μL of CBP solution in a determination buffer were added to a white low-volume 384-well microtiter plate, incubated at room temperature for 20 min, and then incubated at room temperature for 40 min by adding 2.5 μL of biotin-labeled ligand solution to the determination buffer. The final concentrations of CBP, biotin-labeled ligand and DMSO were 5 nM, 50 nM and 1%, respectively. Then, 5 μL of MAb Anti 6HIS—Eu cryptate Gold and […] of Streptavidin-XL665 in detection buffers from the manufacturer were added to the mixture, and the mixture was incubated for another 60 min. The final concentration of Streptavidin-XL665 was 12.5 nM, and MAb Anti 6HIS—Eu cryptate Gold was diluted according to the final concentration provided by the supplier. The multimode reader Spark from TECAN (Mannedorf, Switzerland) was used to read the plate to detect the homogeneous time-resolved fluorescence intensity of two groups, in which the excitation wavelength was 320 nm and the emission wavelengths were 665 nm and 620 nm. The IC50 value of the inhibitor was obtained by fitting fluorescence intensity ratios at 665 nm/620 nm with respect to the inhibitor concentration in an S-shaped dose-response curve by using Prism 7 (La Jolla, 15 CA).
(In general: Time-resolved FRET reads energy transfer from a long-lived donor to a nearby acceptor.)

As a reminder, the IC50 is the midpoint of a concentration-inhibition curve. `CNC(=O)c1cc2ccccc2c(N2CCCc3cc(-c4cnn(C)c4)ccc32)n1` [Example 1, 1-[6-(1-methyl-1H-pyrazol-4-yl)-3,4-dihydro-2H-quinolin-1-yl]-isoquinoline-3-carboxylic acid methylamide]: the IC50 came out at 72 nM. Then `CNC(=O)c1cc2ccccc2c(N2CCCc3cc(-c4cnn(C)c4)c(C(F)F)cc32)n1` [Example 2, 1-[7-difluoromethyl-6-(1-methyl-1H-pyrazol-4-yl)-3,4-dihydro-2H-quinolin-1-yl]isoquinoline-3-carboxylic acid methylamide], with 19 nM; and `Cn1cc(-c2cc3c(cc2C(F)F)N(c2nc(C(N)=O)cc4ccccc24)CCC3)cn1` [Example 3, 1-[7-difluoro-methyl-6-(1-methyl-1H-pyrazol-4-yl)-3,4-dihydro-2H-quinolin-1-yl]-isoquinoline-3-carboxylic acid amide], with 245 nM. With `CN(C)C(=O)c1cc2ccccc2c(N2CCCc3cc(-c4cnn(C)c4)c(C(F)F)cc32)n1` [Example 4, 1-[7-difluoro-methyl-6-(1-methyl-1H-pyrazol-4-yl)-3,4-dihydro-2H-quinolin-1-yl]-isoquinoline-3-carboxylic acid dimethylamide], the IC50 is over 1000 nM. As for `CCNC(=O)c1cc2ccccc2c(N2CCCc3cc(-c4cnn(C)c4)c(C(F)F)cc32)n1` [Example 5, 1-[7-difluoro-methyl-6-(1-methyl-1H-pyrazol-4-yl)-3,4-dihydro-2H-quinolin-1-yl]-isoquinoline-3-carboxylic acid ethylamide], the figure is over 1000 nM. As for `Cn1cc(-c2cc3c(cc2C(F)F)N(c2nc(C(=O)NCCO)cc4ccccc24)CCC3)cn1` [Example 6, 1-[7-difluoro-methyl-6-(1-methyl-1H-pyrazol-4-yl)-3,4-dihydro-2H-quinolin-1-yl]-isoquinoline-3-carboxylic acid(2-hydroxy-ethyl)-amide], the figure is over 1000 nM. For the compound `CC(O)CNC(=O)c1cc2ccccc2c(N2CCCc3cc(-c4cnn(C)c4)c(C(F)F)cc32)n1` (stereo not drawn) [Example 7, 1-[7-difluoro-methyl-6-(1-methyl-1H-pyrazol-4-yl)-3,4-dihydro-2H-quinolin-1-yl]-isoquinoline-3-carboxylic acid(2-hydroxy-propyl)-amide], the IC50 was over 1000 nM.

With `Cn1cc(-c2cc3c(cc2C(F)F)N(c2nc(C(=O)N4CC(O)C4)cc4ccccc24)CCC3)cn1` [Example 8, {1-[7-difluoro-methyl-6-(1-methyl-1H-pyrazol-4-yl)-3,4-dihydro-2H-quinolin-1-yl]-isoquinolin-3-yl}-(3-hydroxy-azetidine-1-yl)methanone], the concentration for half-maximal inhibition (IC50) is over 1000 nM. As for `Cn1cc(-c2cc3c(cc2C(F)F)N(c2nc(C(=O)NC4CC4)cc4ccccc24)CCC3)cn1` [Example 9, 1-[7-difluoro-methyl-6-(1-methyl-1H-pyrazol-4-yl)-3,4-dihydro-2H-quinolin-1-yl]-isoquinoline-3-carboxylic acid cyclopro-pylamide], the figure is over 1000 nM; as for `CNC(=O)c1cccc(N2CCCc3cc(-c4cnn(C)c4)c(C(F)F)cc32)n1` [Example 11], over 1000 nM; as for `CNC(=O)c1nc(N2CCCc3cc(-c4cnn(C)c4)c(C(F)F)cc32)c2ccccc2n1` [Example 12, 4-[7-difluoro-methyl-6-(1-methyl-1H-pyrazol-4-yl)-3,4-dihydro-2H-quinolin-1-yl]-quinazolin-2-carboxylic acid methylamide], over 1000 nM.

On to `CNC(=O)c1cc2cnccc2c(N2CCCc3cc(-c4cnn(C)c4)c(C(F)F)cc32)n1` [Example 13, 2-[7-difluoro-methyl-6-(1-methyl-1H-pyrazol-4-yl)-3,4-dihydro-2H-quinolin-1-yl]-[2,6] naphthyridine-3-carboxylic acid methylamide], for which the IC50 came to 21 nM. As for `CNC(=O)c1cc2ccncc2c(N2CCCc3cc(-c4cnn(C)c4)c(C(F)F)cc32)n1` [Example 14, 1-[7-difluoro-methyl-6-(1-methyl-1H-pyrazol-4-yl)-3,4-dihydro-2H-quinolin-1-yl]-[2,7] naphthyridine-3-carboxylic acid methylamide], the figure is 15 nM; as for `CNC(=O)c1cc2cccnc2c(N2CCCc3cc(-c4cnn(C)c4)c(C(F)F)cc32)n1` [Example 15, 8-[7-difluoro-methyl-6-(1-methyl-1H-pyrazol-4-yl)-3,4-dihydro-2H-quinolin-1-yl]-[1,7] naphthyridine-6-carboxylic acid methylamide], 7.5 nM. Take `CNC(=O)c1cc2ccc(C3=CCOCC3)cc2c(N2CCCc3cc(-c4cnn(C)c4)c(C(F)F)cc32)n1` [Example 16, 1-[7-difluoromethyl-6-(1-methyl-1H-pyrazol-4-yl)-3,4-dihydro-2H-quinolin-1-yl]-7-(3,6-dihydro-2H-pyran-4-yl)-isoquinoline-3-carboxylic acid methylamide]: the IC50 turned out to be 13 nM. Turning to `CNC(=O)c1cc2ccc(C3CCOCC3)cc2c(N2CCCc3cc(-c4cnn(C)c4)c(C(F)F)cc32)n1` [Example 17, 1-[7-difluoromethyl-6-(1-methyl-1H-pyrazol-4-yl)-3,4-dihydro-2H-quinolin-1-yl]-7-(tetrahydro-4-yl)-isoquinoline-3-carboxylic acid methylamide], the IC50 came to 12 nM.

For `CNC(=O)c1cc2ccc(C3=CCOC3)cc2c(N2CCCc3cc(-c4cnn(C)c4)c(C(F)F)cc32)n1` [Example 18, 1-[7-difluoromethyl-6-(1-methyl-1H-pyrazol-4-yl)-3,4-dihydro-2H-quinolin-1-yl]-7-(2,5-dihydro-furan-3-yl)-isoquinoline-3-carboxylic acid methylamide], the IC50 was 19 nM.

With `CNC(=O)c1cc2ccc(C3CCOC3)cc2c(N2CCCc3cc(-c4cnn(C)c4)c(C(F)F)cc32)n1` (stereo not drawn) [Example 19, 1-[7-difluoromethyl-6-(1-methyl-1H-pyrazol-4-yl)-3,4-dihydro-2H-quinolin-1-yl]-7-(tetrahydrofuran-3-yl)-isoquinoline-3-carboxylic acid methylamide], the IC50 was 6.9 nM.

On to `CNC(=O)c1cc2cc(C3=CCOCC3)ccc2c(N2CCCc3cc(-c4cnn(C)c4)c(C(F)F)cc32)n1` [Example 20, 1-[7-difluoromethyl-6-(1-methyl-1H-pyrazol-4-yl)-3,4-dihydro-2H-quinolin-1-yl]-6-(3,6-dihydro-2H-pyran-4-yl)-isoquino-line-3-carboxylic acid methylamide], for which the concentration for half-maximal inhibition (IC50) came to 18 nM.

With `CNC(=O)c1cc2cc(C3CCOCC3)ccc2c(N2CCCc3cc(-c4cnn(C)c4)c(C(F)F)cc32)n1` [Example 21, 1-[7-difluoromethyl-6-(1-methyl-1H-pyrazol-4-yl)-3,4-dihydro-2H-quinolin-1-yl]-6-(tetrahydro-pyran-4-yl)-isoquinoline-3-carboxylic acid methylamide], the IC50 worked out at 38 nM. As for `CNC(=O)c1cc2cc(C3=CCOC3)ccc2c(N2CCCc3cc(-c4cnn(C)c4)c(C(F)F)cc32)n1` [Example 22, 1-[7-difluoromethyl-6-(1-methyl-1H-pyrazol-4-yl)-3,4-dihydro-2H-quinolin-1-yl]-6-(2,5-dihydro-furan-3-yl)-isoquinoline-3-carboxylic acid methylamide], the figure is 22 nM. For `CNC(=O)c1cc2cc(C3CCOC3)ccc2c(N2CCCc3cc(-c4cnn(C)c4)c(C(F)F)cc32)n1` (stereo not drawn) [Example 23, 1-[7-difluoromethyl-6-(1-methyl-1H-pyrazol-4-yl)-3,4-dihydro-2H-quinolin-1-yl]-6-(tetrahydrofuran-3-yl)-isoquinoline-3-carboxylic acid methylamide], the IC50 amounted to 18 nM. Then `CNC(=O)c1cc2ccc(N3CCOC3=O)cc2c(N2CCCc3cc(-c4cnn(C)c4)c(C(F)F)cc32)n1` [Example 24, 1-[7-difluoromethyl-6-(1-methyl-1H-pyrazol-4-yl)-3,4-dihydro-2H-quinolin-1-yl]-7-(2-oxo-oxazolidin-3-yl)-isoquinoline-3-carboxylic acid methylamide], with 7.8 nM; and `CNC(=O)c1cc2cc(N3CCOC3=O)ccc2c(N2CCCc3cc(-c4cnn(C)c4)c(C(F)F)cc32)n1` [Example 25, 1-[7-difluoromethyl-6-(1-methyl-1H-pyrazol-4-yl)-3,4-dihydro-2H-quinolin-1-yl]-6-(2-oxo-oxazolidin-3-yl)-isoquinoline-3-carboxylic acid methylamide], with 4.2 nM.
